According to paper PMC5431432, “Low-basicity 5-HT7 Receptor Agonists Synthesized Using the van Leusen Multicomponent Protocol” (Scientific Reports, 2017):
Where two headings read alike, the source gives them in different places.

Legend:
[1] = target: human 5-HT7 receptor (Homo sapiens, UniProt P34969); test: Functional assay, cAMP production (TR-FRET) in HEK293 cells overexpressing 5-HT7R; type: cell-based
[2] = target: human serotonin 5-HT7bR (Homo sapiens, UniProt P34969); test: Radioligand binding, [3H]-5-CT displacement
[3] = target: human dopamine D2LR (Homo sapiens, UniProt P14416); test: Radioligand binding, [3H]-raclopride displacement
[4] = target: T1, human serotonin 5-HT2A receptor (Homo sapiens, UniProt P28223); test: Radioligand binding, [3H]-ketanserin displacement
T1 construct: host or cells: CHO-K1

[5] = target: human serotonin 5-HT6R (Homo sapiens, UniProt P50406); test: Radioligand binding, [3H]-LSD displacement
[6] = target: T2, human serotonin 5-HT1AR (Homo sapiens, UniProt P08908); test: Radioligand binding, [3H]-8-OH-DPAT displacement
T2 sequence (P08908 1-422): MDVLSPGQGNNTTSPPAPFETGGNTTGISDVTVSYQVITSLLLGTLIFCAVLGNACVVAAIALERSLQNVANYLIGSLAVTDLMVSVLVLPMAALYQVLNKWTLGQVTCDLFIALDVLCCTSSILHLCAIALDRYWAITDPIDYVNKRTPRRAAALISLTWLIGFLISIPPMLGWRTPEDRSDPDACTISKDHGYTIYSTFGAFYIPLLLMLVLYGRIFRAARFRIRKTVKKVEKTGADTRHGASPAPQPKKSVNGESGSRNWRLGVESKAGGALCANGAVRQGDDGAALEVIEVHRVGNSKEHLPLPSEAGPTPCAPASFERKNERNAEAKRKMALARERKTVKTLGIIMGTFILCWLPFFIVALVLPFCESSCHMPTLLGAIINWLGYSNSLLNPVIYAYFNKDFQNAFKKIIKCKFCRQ

[7] = Fig. 2, read-out: pKi D2 (converted)
[8] = Fig. 2, read-out: pKi 5-HT2A (converted)
[9] = Fig. 2, read-out: pKi 5-HT7 (converted)
[10] = Fig. 2, read-out: pKi 5-HT6 (converted)
[11] = Fig. 2, read-out: pKi 5-HT1A (converted)

T1 sequence (P28223 whole entry): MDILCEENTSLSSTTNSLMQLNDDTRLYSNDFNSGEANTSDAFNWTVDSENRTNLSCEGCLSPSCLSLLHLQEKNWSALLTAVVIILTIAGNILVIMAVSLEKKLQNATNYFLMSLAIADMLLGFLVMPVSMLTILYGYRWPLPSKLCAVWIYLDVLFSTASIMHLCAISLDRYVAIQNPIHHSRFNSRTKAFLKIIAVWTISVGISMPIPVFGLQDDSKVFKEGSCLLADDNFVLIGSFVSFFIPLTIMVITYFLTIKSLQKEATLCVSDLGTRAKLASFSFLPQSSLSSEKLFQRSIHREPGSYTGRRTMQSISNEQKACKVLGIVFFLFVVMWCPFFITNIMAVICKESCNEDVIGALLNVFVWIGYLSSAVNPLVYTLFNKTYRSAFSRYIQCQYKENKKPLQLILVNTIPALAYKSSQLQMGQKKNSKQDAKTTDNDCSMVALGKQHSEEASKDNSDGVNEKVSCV
human serotonin 5-HT6R, sequence (P50406 whole entry): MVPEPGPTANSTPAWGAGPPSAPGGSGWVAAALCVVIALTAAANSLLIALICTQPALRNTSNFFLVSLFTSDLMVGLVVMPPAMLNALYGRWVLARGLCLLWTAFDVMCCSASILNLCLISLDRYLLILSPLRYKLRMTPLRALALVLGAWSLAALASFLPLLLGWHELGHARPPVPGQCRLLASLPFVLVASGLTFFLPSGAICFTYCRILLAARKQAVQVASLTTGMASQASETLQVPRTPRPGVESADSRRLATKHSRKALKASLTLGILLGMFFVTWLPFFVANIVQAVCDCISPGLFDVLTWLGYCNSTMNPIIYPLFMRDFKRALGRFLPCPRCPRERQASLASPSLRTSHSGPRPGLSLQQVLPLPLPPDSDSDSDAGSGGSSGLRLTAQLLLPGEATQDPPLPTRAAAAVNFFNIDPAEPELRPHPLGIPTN
human dopamine D2LR, sequence (P14416 whole entry): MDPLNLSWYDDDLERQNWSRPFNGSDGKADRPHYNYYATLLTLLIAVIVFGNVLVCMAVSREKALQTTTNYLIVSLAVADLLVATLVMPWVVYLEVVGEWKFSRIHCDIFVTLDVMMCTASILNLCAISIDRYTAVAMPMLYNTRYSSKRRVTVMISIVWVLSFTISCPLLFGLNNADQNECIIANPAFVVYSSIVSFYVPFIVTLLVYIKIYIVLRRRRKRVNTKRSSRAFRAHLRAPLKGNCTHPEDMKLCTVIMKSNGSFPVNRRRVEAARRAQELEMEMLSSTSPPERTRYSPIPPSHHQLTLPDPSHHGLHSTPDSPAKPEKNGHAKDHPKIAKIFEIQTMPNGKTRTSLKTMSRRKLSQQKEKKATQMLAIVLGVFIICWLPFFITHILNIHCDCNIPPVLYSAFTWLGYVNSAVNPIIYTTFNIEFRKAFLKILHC
human serotonin 5-HT7bR, sequence (P34969 1-432 limits assumed): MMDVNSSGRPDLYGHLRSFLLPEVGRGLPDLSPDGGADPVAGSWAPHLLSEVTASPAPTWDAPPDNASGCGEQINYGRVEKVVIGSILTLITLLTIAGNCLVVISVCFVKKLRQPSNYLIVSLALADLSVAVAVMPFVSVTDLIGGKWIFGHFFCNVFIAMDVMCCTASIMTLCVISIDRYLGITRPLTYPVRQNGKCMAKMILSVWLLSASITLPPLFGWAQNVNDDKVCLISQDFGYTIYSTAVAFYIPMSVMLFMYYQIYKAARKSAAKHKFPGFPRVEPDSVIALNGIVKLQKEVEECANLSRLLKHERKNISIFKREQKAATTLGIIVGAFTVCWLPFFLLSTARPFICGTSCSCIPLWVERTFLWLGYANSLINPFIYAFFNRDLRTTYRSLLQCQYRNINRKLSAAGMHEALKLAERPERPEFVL
human 5-HT7 receptor, sequence (P34969 1-432 limits assumed): as above

CCn1cncc1-c1c[nH]c2ccc(C)cc12 [1q]
function at the human 5-HT7 receptor [1]: full agonists | EC50 ([1]; hydrochloride salts): 0.045 µM | Ki ([2]; read-out: K i (5-HT7R)): 0.044 µM

CCn1cncc1-c1c(C)[nH]c2ccc(OC)cc12 [1v]
Ki [3, 7]: > 10 µM | Ki [4, 8]: > 10 µM | Ki [2, 9]: > 10 µM | Ki [5, 10]: > 10 µM | Ki [6, 11]: > 10 µM

COc1ccc2[nH]cc(-c3cnc[nH]3)c2c1 [1x]
Ki [3, 7]: 6.17 µM | Ki [4, 8]: 7.94 µM | Ki [2, 9]: 1.2 µM | Ki [5, 10]: 4.07 µM | Ki [6, 11]: 6.76 µM

CCn1cncc1-c1c[nH]c2ccc(OCc3ccccc3)cc12 [1y]
Ki [3, 7]: 4.47 µM | Ki [4, 8]: > 10 µM | Ki [2, 9]: 3.72 µM | Ki [6, 11]: > 10 µM

CCn1cncc1-c1c[nH]c2ccc(C(N)=O)cc12 [1za, 3-(1-Ethyl-1H-imidazol-5-yl)-1H-indole-5-carboxamide]
Ki ([2]; read-out: Ki 5-HT7): 0.005 µM

COc1ccc(-c2c([N+](=O)[O-])ncn2C)cc1 [2a]
melting point: 171 °C | Ki [3, 7]: > 10 µM | Ki [4, 8]: > 10 µM | binding to 5-HT7R in words [2]: did not bind | Ki [2, 9]: > 10 µM | Ki [5, 10]: > 10 µM | binding to 5-HT1AR in words [6]: did not bind | Ki [6, 11]: > 10 µM

COc1ccc(-c2cncn2C)cc1 [2b]
Ki [3, 7]: > 10 µM | Ki [4, 8]: > 10 µM | binding to 5-HT7R in words [2]: completely inactive | Ki [2, 9]: > 10 µM | Ki [5, 10]: 5.37 µM | Ki [6, 11]: > 10 µM

COc1cccc(-c2cncn2C)c1 [2c]
Ki [3, 7]: > 10 µM | Ki [4, 8]: > 10 µM | Ki [2, 9]: > 10 µM | Ki [5, 10]: 8.91 µM | Ki [6, 11]: > 10 µM

COc1ccccc1-c1cncn1C [2d]
Ki [3, 7]: > 10 µM | Ki [4, 8]: > 10 µM | Ki [2, 9]: 2.45 µM | Ki [5, 10]: > 10 µM | Ki [6, 11]: > 10 µM

Cn1cncc1-c1ccccc1 [2e]
Ki [3, 7]: > 10 µM | Ki [4, 8]: > 10 µM | Ki [2, 9]: > 10 µM | Ki [5, 10]: > 10 µM | Ki [6, 11]: > 10 µM

COc1cc(-c2cncn2C)c(OC)cc1I [2f]
Ki [3, 7]: 6.92 µM | Ki [4, 8]: > 10 µM | Ki [2, 9]: > 10 µM | Ki [5, 10]: 5.37 µM | Ki [6, 11]: > 10 µM

CCn1cncc1-c1cc2ccccc2[nH]1 [3b]
Ki [3, 7]: > 10 µM | Ki [4, 8]: > 10 µM | Ki [2, 9]: > 10 µM | Ki [5, 10]: > 10 µM | Ki [6, 11]: > 10 µM

CCn1cncc1-c1ccc2[nH]ccc2c1 [3c]
Ki [3, 7]: > 10 µM | Ki [4, 8]: > 10 µM | Ki [2, 9]: 5.25 µM | Ki [5, 10]: 3.55 µM | Ki [6, 11]: > 10 µM

CCn1cncc1-c1ccc2cc[nH]c2c1 [3d]
Ki [3, 7]: > 10 µM | Ki [4, 8]: > 10 µM | Ki [2, 9]: 2.63 µM | Ki [5, 10]: 4.57 µM | Ki [6, 11]: > 10 µM

NCCc1c[nH]c2ccc(Cl)cc12 [5-chlorotryptamine, reference compound]
Ki [3]: 2.44 µM | Ki [4]: 0.317 µM | Ki [2]: 0.016 µM | Ki [5]: 0.038 µM | Ki [6]: 0.016 µM

COc1ccc2[nH]cc(CCN)c2c1 [5-methoxytryptamine, reference compound]
Ki [3]: > 10 µM

Cc1ccc2[nH]cc(CCN)c2c1 [5-methyltryptamine, reference compound]
Ki [3]: > 10 µM | Ki [4]: 2.28 µM | Ki [2]: 0.026 µM | Ki [5]: 0.327 µM | Ki [6]: 0.039 µM
